# Laboratory results taken from publication PMC8205030, “Methoxy and bromo scans on N-(5-methoxyphenyl) methoxybenzenesulphonamides reveal potent cytotoxic compounds, especially against the human breast adenocarcinoma MCF7 cell line” (Journal of Enzyme Inhibition and Medicinal Chemistry, 2021).
# Test system: not given
# Experiment: not given
# Conditions: not given
row,SMILES,melting point [°C]
1,"COc1ccc(S(=O)(=O)N(CC#N)c2cc(OC)c(OC)cc2Br)cc1 [Compound 16, N-(2-bromo-4,5-dimethoxyphenyl)-N-(cyanomethyl)-4-methoxybenzenesulphonamide]",76 to 84
2,"COc1ccc(S(=O)(=O)Nc2cc(OC)ccc2OC)cc1 [Compound 21, N-(2,5-dimethoxyphenyl)-4-methoxybenzenesulphonamide]",114 to 115
3,"COc1ccc(S(=O)(=O)N(C)c2cc(OC)ccc2OC)cc1 [Compound 22, N-(2,5-dimethoxyphenyl)-4-methoxy-N-methylbenzenesulphonamide]",105 to 110
4,"COc1ccc(S(=O)(=O)Nc2cc(OC)c(Br)cc2OC)cc1 [Compound 23, N-(4-bromo-2,5-dimethoxyphenyl)-4-methoxybenzenesulphonamide]",118 to 119

# Test system: HeLa (human cervical carcinoma) cells
# Experiment: Cell growth assay (XTT), HeLa
# Type: cell-based
# Conditions: 72 h drug exposure, read-out: Antiproliferative activity IC50 HeLa
# Experimental: (§1) The presence of mycoplasma was routinely checked with MycoAlert kit (Lonza-Cambrex) and only mycoplasma-free cells were used in the experiments. Tumour cell lines were kindly provided by Dr Faustino Mollinedo from Centro de Investigaciones Biológicas Margarita Salas, Madrid, Spain. To determine cell growth, cells in exponential growth phase were seeded (100 µL/well in 96-well plates) with appropriate cell concentration (1.5 × 10^4 cells/mL for MCF7, HeLa and HEK-293 and 3 × 10^4 cells/mL for HT-29) in complete DMEM or RPMI 1640 medium (see above) at 37 °C and 5% CO2 atmosphere. After 24 h incubation, to allow cells to attach to the plates, all compounds were added at 1 µM concentration (10 µL/well in 96-well plates) and the effect on the proliferation was evaluated 72 h post-treatment. Compounds showing antiproliferative effects at tested concentration were selected for IC50 calculation (50% inhibitory concentration compared to the untreated controls) from 10^−5 to 10^−10 M concentration. Nonlinear curves fitting the experimental data were carried out for each compound. […] A freshly prepared mixture solution of XTT labelling reagent with 0.02% (v/v) PMS (N-methyl-dibenzopyrazine methyl sulfate) electron coupling reagent was added to cells (50 µL/well in 96-well plates, the total volume of 160 µL/well) and were incubated during the corresponding time according to each cell line (4 h for MCF7 and HeLa and 6 h for HT-29 and HEK-293) in a humidified atmosphere (37 °C, 5% CO2). The absorbance of the formazan product generated was measured at a test wavelength of 450 nm using a multi-well plate reader (Ultra Evolution, Tecan, Männedorf, Suiza). Compounds were dissolved in DMSO and the final solvent concentrations never exceeded 0.5% (v/v). The control wells included treated cells with 0.5% (v/v) DMSO and the positive control. 10 µM verapamil was included as a control for the HT-29 cell line. Measurements were performed in triplicate, and each experiment was repeated three times.
row,SMILES,IC50 [nM]
1,"COc1ccc(S(=O)(=O)N(CC#N)c2cc(OC)c(OC)cc2Br)cc1 [Compound 16, N-(2-bromo-4,5-dimethoxyphenyl)-N-(cyanomethyl)-4-methoxybenzenesulphonamide]",407
2,"COc1ccc(S(=O)(=O)Nc2cc(OC)ccc2OC)cc1 [Compound 21, N-(2,5-dimethoxyphenyl)-4-methoxybenzenesulphonamide]",227
3,"COc1ccc(S(=O)(=O)N(C)c2cc(OC)ccc2OC)cc1 [Compound 22, N-(2,5-dimethoxyphenyl)-4-methoxy-N-methylbenzenesulphonamide]",177
4,"COc1ccc(S(=O)(=O)Nc2cc(OC)c(Br)cc2OC)cc1 [Compound 23, N-(4-bromo-2,5-dimethoxyphenyl)-4-methoxybenzenesulphonamide]",45

# Test system: not listed separately
# Experiment: Aqueous solubility (saturation shake-flask, UV)
# Type: physicochemical
# Conditions: aqueous buffer, thermodynamic from solid, pH 7.0 phosphate buffer, room temperature
# Experimental: The aqueous solubility was determined in a Helios-α UV-320 Spectrophotometer Thermo-Spectronic, Thermo Fischer Scientific, Waltham, MA, USA) using an approach based on the saturation shake-flask method. 1–2 mg of each selected compound was suspended in 300 µL pH 7.0 buffer and stirred for 48 h at room temperature. The resulting mixture was filtered through a […] filter to discard the insoluble residues. A scan between 270 and 400 nm for the tested compound was performed and three wavelengths of maximum absorbance were selected. Calibration curves were performed at these wavelengths and the concentration in the supernatant was measured by UV absorbance. The final value was given as the average of the three measurements.
row,SMILES,solubility at 48 h [µg/mL]
1,"COc1ccc(S(=O)(=O)N(CC#N)c2cc(OC)c(OC)cc2Br)cc1 [Compound 16, N-(2-bromo-4,5-dimethoxyphenyl)-N-(cyanomethyl)-4-methoxybenzenesulphonamide]",13
2,"COc1ccc(S(=O)(=O)Nc2cc(OC)ccc2OC)cc1 [Compound 21, N-(2,5-dimethoxyphenyl)-4-methoxybenzenesulphonamide]",13
3,"COc1ccc(S(=O)(=O)N(C)c2cc(OC)ccc2OC)cc1 [Compound 22, N-(2,5-dimethoxyphenyl)-4-methoxy-N-methylbenzenesulphonamide]",25
4,"COc1ccc(S(=O)(=O)Nc2cc(OC)c(Br)cc2OC)cc1 [Compound 23, N-(4-bromo-2,5-dimethoxyphenyl)-4-methoxybenzenesulphonamide]",9

# Test system: MCF7 (human breast carcinoma) cells
# Experiment: Cell growth assay (XTT), MCF7
# Type: cell-based
# Conditions: Homo sapiens, MCF7; 72 h drug exposure, XTT; read-out: Antiproliferative activity IC50 MCF7
# Experimental: as §1
row,SMILES,IC50 [nM]
1,"COc1ccc(S(=O)(=O)N(CC#N)c2cc(OC)c(OC)cc2Br)cc1 [Compound 16, N-(2-bromo-4,5-dimethoxyphenyl)-N-(cyanomethyl)-4-methoxybenzenesulphonamide]",575
2,"COc1ccc(S(=O)(=O)Nc2cc(OC)ccc2OC)cc1 [Compound 21, N-(2,5-dimethoxyphenyl)-4-methoxybenzenesulphonamide]",350
3,"COc1ccc(S(=O)(=O)N(C)c2cc(OC)ccc2OC)cc1 [Compound 22, N-(2,5-dimethoxyphenyl)-4-methoxy-N-methylbenzenesulphonamide]",153
4,"COc1ccc(S(=O)(=O)Nc2cc(OC)c(Br)cc2OC)cc1 [Compound 23, N-(4-bromo-2,5-dimethoxyphenyl)-4-methoxybenzenesulphonamide]",25

# Test system: HT-29 (human colon carcinoma) cells
# Experiment: Cell growth assay (XTT), HT-29, alone or with verapamil
# Type: cell-based
# Conditions: 72 h, in the presence of Pgp/MDR1 inhibitor verapamil (10 µM); read-out: Antiproliferative activity IC50 HT-29 Verap
# Experimental: as §1, with “Compounds showing antiproliferative effects at tested concentration were selected for IC50 calculation (50% inhibitory concentration compared to the untreated controls) from 10^−5 to 10^−10 M concentration.” left out
row,SMILES,IC50 [nM]
1,"COc1ccc(S(=O)(=O)N(CC#N)c2cc(OC)c(OC)cc2Br)cc1 [Compound 16, N-(2-bromo-4,5-dimethoxyphenyl)-N-(cyanomethyl)-4-methoxybenzenesulphonamide]",750
2,"COc1ccc(S(=O)(=O)N(C)c2cc(OC)ccc2OC)cc1 [Compound 22, N-(2,5-dimethoxyphenyl)-4-methoxy-N-methylbenzenesulphonamide]",305
3,"COc1ccc(S(=O)(=O)Nc2cc(OC)c(Br)cc2OC)cc1 [Compound 23, N-(4-bromo-2,5-dimethoxyphenyl)-4-methoxybenzenesulphonamide]",30

# Same assay, conditions: Homo sapiens, HT-29; 72 h drug exposure, XTT; read-out: Antiproliferative activity IC50 HT-29
row,SMILES,IC50 [nM]
1,"COc1ccc(S(=O)(=O)N(CC#N)c2cc(OC)c(OC)cc2Br)cc1 [Compound 16, N-(2-bromo-4,5-dimethoxyphenyl)-N-(cyanomethyl)-4-methoxybenzenesulphonamide]",360
2,"COc1ccc(S(=O)(=O)Nc2cc(OC)ccc2OC)cc1 [Compound 21, N-(2,5-dimethoxyphenyl)-4-methoxybenzenesulphonamide]",187
3,"COc1ccc(S(=O)(=O)N(C)c2cc(OC)ccc2OC)cc1 [Compound 22, N-(2,5-dimethoxyphenyl)-4-methoxy-N-methylbenzenesulphonamide]",250
4,"COc1ccc(S(=O)(=O)Nc2cc(OC)c(Br)cc2OC)cc1 [Compound 23, N-(4-bromo-2,5-dimethoxyphenyl)-4-methoxybenzenesulphonamide]",72

# Biological target: T1, microtubular protein isolated from calf brain (Bos taurus, UniProt P81947+Q6B856)
# T1 construct: isolated from calf brain according to the modified Shelanski method; from tissue; host or cells: calf brain
# T1 sequence (Q6B856 whole entry): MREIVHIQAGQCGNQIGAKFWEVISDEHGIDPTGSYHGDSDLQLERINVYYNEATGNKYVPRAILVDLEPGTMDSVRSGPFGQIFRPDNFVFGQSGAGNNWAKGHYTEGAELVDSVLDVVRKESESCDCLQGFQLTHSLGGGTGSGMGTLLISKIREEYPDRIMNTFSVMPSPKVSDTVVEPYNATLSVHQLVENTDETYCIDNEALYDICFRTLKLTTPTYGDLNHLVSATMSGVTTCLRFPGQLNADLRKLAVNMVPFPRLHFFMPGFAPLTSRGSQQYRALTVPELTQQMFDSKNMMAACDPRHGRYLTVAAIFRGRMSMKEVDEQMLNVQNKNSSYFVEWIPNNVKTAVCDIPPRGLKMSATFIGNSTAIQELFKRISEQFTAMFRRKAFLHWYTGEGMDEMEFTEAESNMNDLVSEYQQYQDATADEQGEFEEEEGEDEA
# T1 sequence (P81947 whole entry): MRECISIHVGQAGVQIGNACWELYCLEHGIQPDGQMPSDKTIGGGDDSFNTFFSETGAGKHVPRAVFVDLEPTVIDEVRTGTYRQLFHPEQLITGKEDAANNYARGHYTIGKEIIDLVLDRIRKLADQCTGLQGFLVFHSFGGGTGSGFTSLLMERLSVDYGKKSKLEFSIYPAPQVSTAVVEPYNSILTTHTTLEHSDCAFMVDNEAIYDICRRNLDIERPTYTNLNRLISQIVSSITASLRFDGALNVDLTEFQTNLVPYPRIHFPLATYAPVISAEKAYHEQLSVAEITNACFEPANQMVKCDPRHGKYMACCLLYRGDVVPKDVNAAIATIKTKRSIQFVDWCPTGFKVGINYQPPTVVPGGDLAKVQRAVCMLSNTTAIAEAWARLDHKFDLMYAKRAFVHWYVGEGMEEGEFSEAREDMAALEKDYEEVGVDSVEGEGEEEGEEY
# Experiment: Inhibition of tubulin polymerisation (turbidity)
# Type: biochemical
# Conditions: 10 µM compound, 1.5 mg/mL microtubular protein
# Experimental: Microtubular protein was isolated from calf brain according to the modified Shelanski method[23]^,[24] by two cycles of temperature-dependent assembly/disassembly and stored at −80 °C. Before each use, protein concentration is determined by Bradford method[25] taking BSA as standard. Tubulin polymerisation was monitored using a Helios α spectrophotometer by measuring the increase in turbidity at 450 nm, caused by a shift from 4 °C to 37 °C, which allows the in vitro microtubular protein to depolymerise and to polymerise, respectively. The assay was carried out in quartz cuvettes containing 1.5 mg/mL microtubular protein and the ligand (except for control cuvette with only DMSO at the same concentration) in a mixture of 0.1 M MES buffer, 1 mM EGTA, 1 mM MgCl2, 1 mM β-ME, and 1.5 mM GTP at pH 6.7 (final volume 500 µL). Cuvettes were preincubated at 20 °C for 30 min, to allow ligand binding to tubulin, and subsequently cooled on ice for 10 min. Then, the experiment starts at 4 °C to establish the initial baseline. The assembly process was initiated by a temperature shift to 37 °C and the turbidity produced by tubulin polymerisation can be measured by an absorbance increase. After reaching a stable plateau, the temperature was switched back to 4 °C to return to the initial absorption values (to confirm the reversible nature of the monitored process and to determine whether or not the microtubular protein has stabilized). The difference in amplitude between the stable plateau and the initial baseline of the curves was taken as the degree of tubulin polymerisation for each experiment. […] All compounds were tested at 10 µM concentration. IC50 values were calculated for compounds that inhibit tubulin polymerisation more than 50% at 10 µM. […] All the measurements were carried out in at least two independent experiments using microtubular protein from different preparations.
row,SMILES,TPI % 10 µM [%]
1,"COc1ccc(S(=O)(=O)N(CC#N)c2cc(OC)c(OC)cc2Br)cc1 [Compound 16, N-(2-bromo-4,5-dimethoxyphenyl)-N-(cyanomethyl)-4-methoxybenzenesulphonamide]",16
2,"COc1ccc(S(=O)(=O)Nc2cc(OC)ccc2OC)cc1 [Compound 21, N-(2,5-dimethoxyphenyl)-4-methoxybenzenesulphonamide]",0
3,"COc1ccc(S(=O)(=O)N(C)c2cc(OC)ccc2OC)cc1 [Compound 22, N-(2,5-dimethoxyphenyl)-4-methoxy-N-methylbenzenesulphonamide]",4
4,"COc1ccc(S(=O)(=O)Nc2cc(OC)c(Br)cc2OC)cc1 [Compound 23, N-(4-bromo-2,5-dimethoxyphenyl)-4-methoxybenzenesulphonamide]",65

# Same assay, conditions: in vitro tubulin polymerisation inhibition; read-out: TPI IC50
row,SMILES,IC50 [nM]
1,"COc1ccc(S(=O)(=O)N(CC#N)c2cc(OC)c(OC)cc2Br)cc1 [Compound 16, N-(2-bromo-4,5-dimethoxyphenyl)-N-(cyanomethyl)-4-methoxybenzenesulphonamide]",> 10000
2,"COc1ccc(S(=O)(=O)Nc2cc(OC)ccc2OC)cc1 [Compound 21, N-(2,5-dimethoxyphenyl)-4-methoxybenzenesulphonamide]",> 10000
3,"COc1ccc(S(=O)(=O)N(C)c2cc(OC)ccc2OC)cc1 [Compound 22, N-(2,5-dimethoxyphenyl)-4-methoxy-N-methylbenzenesulphonamide]",> 10000
4,"COc1ccc(S(=O)(=O)Nc2cc(OC)c(Br)cc2OC)cc1 [Compound 23, N-(4-bromo-2,5-dimethoxyphenyl)-4-methoxybenzenesulphonamide]",6900

# Test system: HEK293 (human embryonic kidney) cells
# Experiment: Cell growth assay (XTT), non-tumorigenic HEK293
# Type: cell-based
# Conditions: not given
# Experimental: as §1
row,SMILES,Selectivity index HEK293 vs HeLa and MCF7 tumour cells
1,"COc1ccc(S(=O)(=O)N(C)c2cc(OC)ccc2OC)cc1 [Compound 22, N-(2,5-dimethoxyphenyl)-4-methoxy-N-methylbenzenesulphonamide]",3- to 5 fold
2,"COc1ccc(S(=O)(=O)Nc2cc(OC)c(Br)cc2OC)cc1 [Compound 23, N-(4-bromo-2,5-dimethoxyphenyl)-4-methoxybenzenesulphonamide]",0.5 to 2 fold

# Same assay, conditions: Homo sapiens, HEK293; non-tumorigenic cell line, 72 h, XTT; read-out: Antiproliferative activity IC50 HEK293
row,SMILES,IC50 [nM]
1,"COc1ccc(S(=O)(=O)N(C)c2cc(OC)ccc2OC)cc1 [Compound 22, N-(2,5-dimethoxyphenyl)-4-methoxy-N-methylbenzenesulphonamide]",517
2,"COc1ccc(S(=O)(=O)Nc2cc(OC)c(Br)cc2OC)cc1 [Compound 23, N-(4-bromo-2,5-dimethoxyphenyl)-4-methoxybenzenesulphonamide]",43
